This is an account of results in PMC4635503, “High-affinity nitrate/nitrite transporters NrtA and NrtB of Aspergillus nidulans exhibit high specificity and different inhibitor sensitivity” (Microbiology, 2015).

The Ki is the equilibrium dissociation constant of an inhibitor or competing ligand from its target.

Each structure is given as a SMILES string. Converted amounts (≈) assume the structure as drawn. “Also recorded” adds a separate entry of the source. Like-named read-outs stand apart in the source and are kept apart here. Bounds are passed on as bounds.

Assay [1] deals with T1, NrtA (Emericella nidulans, UniProt P22152). Further details: mutant nrtB110 (expressing a functional NrtA); endogenous in cells; host or cells: Aspergillus nidulans mycelium, knockout strain nrtB110, nitrate-induced; method as in Zhou et al. (2000). To be noted: NrtA expressed in Xenopus oocytes; ref Zhou et al. (2000); cited from earlier work.
T1 sequence (P22152 whole entry): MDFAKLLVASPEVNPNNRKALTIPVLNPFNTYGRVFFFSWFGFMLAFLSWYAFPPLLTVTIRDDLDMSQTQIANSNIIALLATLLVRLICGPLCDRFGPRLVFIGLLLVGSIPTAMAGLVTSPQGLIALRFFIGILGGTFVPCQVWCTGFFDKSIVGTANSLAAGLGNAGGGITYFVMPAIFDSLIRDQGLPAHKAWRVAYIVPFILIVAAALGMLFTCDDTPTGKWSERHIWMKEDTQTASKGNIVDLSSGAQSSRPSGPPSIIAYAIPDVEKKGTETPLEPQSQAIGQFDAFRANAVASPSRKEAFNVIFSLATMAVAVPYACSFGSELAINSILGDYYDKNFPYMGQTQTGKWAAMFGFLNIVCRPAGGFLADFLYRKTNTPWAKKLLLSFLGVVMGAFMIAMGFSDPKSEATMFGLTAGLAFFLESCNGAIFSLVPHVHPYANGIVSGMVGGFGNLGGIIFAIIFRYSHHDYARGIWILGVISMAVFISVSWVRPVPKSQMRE
Assay [2] addresses T1, NrtA. Put plainly: cell-based. Further details: mutant nrtB110 (expressing a functional NrtA); endogenous in cells; host or cells: Aspergillus nidulans mycelium, knockout strain nrtB110, nitrate-induced; species or system Aspergillus nidulans. The conditions noted are these: for Ki: K i, nrtB110 (NrtA), inhibitor concentration reducing net nitrate uptake rate by 50 % of control, mean ± SE; for nature of inhibition of nitrate transport (Lineweaver–Burk): NrtA (expressed in nrtB110). Here is the method: (§1) These were performed on cultures grown in liquid AMM with 5 mM urea as nitrogen source for a total of 6.5 h at 37 °C ([Brownlee & Arst, 1983]). Urea was used as it (i) is a neutral nitrogen source, neither inducing nor repressing nitrate transport, (ii) has been used routinely in the past and (iii) permitted direct comparison with previously published results. […] Transporter activity was induced by the addition of 10 mM sodium nitrate 100 min prior to assay as described previously ([Brownlee & Arst, 1983]). Assays were carried out in triplicate, generally at pH 6.5, on three independently grown cultures for each strain and expressed as nmol nitrate removed from the medium min^ − 1 (mg dried mycelium)^ − 1, as discussed before ([Brownlee & Arst, 1983]; [Kinghorn et al., 2005]; [Unkles et al., 2012]). Both carbonic acid and bicarbonate chemical species can occur at pH 6.5. Thus potential inhibition of nitrate transport by carbonic acid/bicarbonate was tested at pH 6.5 and bicarbonate at pH 8.3.
(§2) To effectively assess net uptake, it is necessary that any export, i.e. simultaneous transport in the reverse direction, is minimal.
(§3) Values of K m and V max were calculated by linear regression of Lineweaver–Burk analyses (1/v against 1/s, where v is net uptake and s is substrate concentration). The kinetic values of nitrate transport by the WT and mutants were compared with those from a previous report ([Unkles et al., 2001]). […] Therefore the kinetic values in the absence of inhibitors from the present study were used as control values. Each K i value was determined by regression of the rates of net nitrate uptake transport versus the range of concentrations of a particular inhibitor: linear or nonlinear regression was used, depending on which type provided the highest r ^2 value. Calculated from each regression was the concentration of the inhibitor that reduced net nitrate uptake rate by 50 % of the control (without inhibitor) rate, which was assessed as the K i value. Lineweaver–Burk analyses were carried out to determine the nature of the inhibition of nitrate transport for each inhibitor.

In assay [3] the test system is NrtB. The class given is cell-based, Aspergillus nidulans. The conditions noted are these: for nature of inhibition of nitrate transport (Lineweaver–Burk): NrtB (expressed in nrtA1); for Ki: nrtA1 (NrtB), inhibitor concentration reducing net nitrate uptake rate by 50 % of control, mean ± SE. Here is the method:
as §1, §2, §3

Assay [4] has as its system A. nidulans mutant nrtB110 (functional NrtA). In words: microbe, parasite or virus in culture. The class given is cell-based, Aspergillus nidulans. The conditions noted are these: nrtB110 (NrtA). Here is the method:
(§4) Fungal growth tests were carried out in standard Petri dishes containing defined Aspergillus minimal medium (AMM) agar ([Cove, 1976]), with sodium nitrate or proline as the sole nitrogen source, at 1 or 10 mM concentration. Strains were tested for inhibition by bicarbonate, formate, oxalate, chlorite, sulphite (all purchased as the sodium salt), chlorate (potassium salt), malonate (acid form) or caesium (chloride salt). Stock aqueous solutions of inhibitors were adjusted to pH 6.5 and prepared immediately before use. It should be noted that at pH 6.5, bicarbonate is in approximately 50 % equilibrium with carbonic acid. […] Cultures were incubated routinely at 37 °C for 48 h, and the growth response was scored.
(§5) Each treatment was carried out in five replicates. […] As caesium was utilized as a chloride salt, a control for potential inhibition by chloride was assessed, by growth on 100 mM sodium chloride (Fig. 4).

Assay [5] relates to NrtA, NrtB (WT strain). Further details: method as in Brownlee & Arst (1983). To be noted: 1 mM chlorate, cells grown for 6 or 17 h, ref Brownlee & Arst (1983); cited from earlier work.
In assay [6] the target is NrtA, NrtB (WT strain). In words: Net nitrate uptake assay and kinetics, WT strain. The class given is cell-based, Aspergillus nidulans. To be noted: WT (NrtA, NrtB), inhibitor concentration reducing net nitrate uptake rate by 50 % of control, mean ± SE. The procedure:
as §1, §2, §3

Assay [7] has as its system NrtB. Set-up: method as in Brownlee & Arst (1983). The conditions noted are these: crnA1 (nrtA1) mutant, 1 mM chlorate, cells grown for 6 or 17 h; ref Brownlee & Arst (1983); cited from earlier work.
In assay [8] the test system is A. nidulans WT strain (NrtA, NrtB). Put plainly: MIC growth test on solid AMM, WT strain. The class given is cell-based, Aspergillus nidulans. The conditions noted are these: Aspergillus nidulans. Here is the method: as §4, §5
Assay [9] has as its system nitrate transport by NrtA and NrtB. Put plainly: Net nitrate transport inhibition assays, strain not specified. The class given is cell-based, Aspergillus nidulans. The conditions noted are these: net nitrate transport; data not shown. The procedure:
as §1, §2

The next assay concerns NitA. To be noted: data not shown.
For assay [10], the system named is A. nidulans mutant nrtA1 (functional NrtB). In words: microbe, parasite or virus in culture. The class given is cell-based, Aspergillus nidulans. To be noted: Aspergillus nidulans. Here is the method: as §4, §5
Assay [11] deals with A. nidulans double mutant tbl110 (nrtA747 nrtB110, neither transporter). Put plainly: microbe, parasite or virus in culture. The class given is cell-based, Aspergillus nidulans. The conditions noted are these: T110 (neither transporter). The procedure: as §4, §5
[12] abbreviates: Aspergillus nidulans, 1 mM nitrate as sole nitrogen source.
Where [13] appears, read: Aspergillus nidulans, 10 mM proline as sole nitrogen source.
The mark [14] stands for this setting: 1 mM nitrate as sole nitrogen source, solid AMM, 37 °C.
[15] abbreviates: 1 mM proline as sole nitrogen source.
The mark [16] stands for this setting: 10 mM proline as sole nitrogen source.
Setting [17] is: 10 mM nitrate as sole nitrogen source.
[18] abbreviates: Aspergillus nidulans, 1 mM proline as sole nitrogen source.

With `[O-][Cl+2]([O-])O` [Chlorate, chlorate], the “substrate / transport by NrtA in oocytes” value at NrtA [1] is on record as “did not, however, observe transport”. The Ki is 29.3 ± 2.8 mM at NrtA [2]; 44.3 ± 2.3 mM on NrtB [3]; around 44 mM at NrtB [3] (listed as chlorate); 29.9 ± 3.7 mM on NrtA, NrtB (WT strain) [6]; around 30 mM at NrtA, NrtB (WT strain) [6] (listed as chlorate). The “nature of inhibition of nitrate transport (Lineweaver–Burk)” value on NrtA [2] is reported as “competition with nitrate”; on NrtA [2] (listed as chlorate), “competitive inhibitor”; with NrtB [3], “non-competitive inhibition”; in the assay on NrtB [3] (listed as chlorate), “non-competitively”. In addition, the activity at 10000 µM at NrtA [2] (read-out: net nitrate transport activity retained) amounted to 65%. Also, the “net nitrate transport activity retained” value with NrtB [3] (nrtA1 (functional NrtB), 10 mM chlorate, data not shown) worked out at 93%. Besides, the MIC in assay [4] (setting [12]) was 50000 µM (≈ 4220 µg/mL); in [4] (setting [13]) it was 50000 µM (≈ 4220 µg/mL); in [8] (setting [14]), 100000 µM (≈ 8450 µg/mL); in assay [8] (setting [15]) it was 50000 µM (≈ 4220 µg/mL); in [8] (setting [16]), 25000 µM (≈ 2110 µg/mL). Also, the “reduction of nitrate transport” value is 80% with NrtA, NrtB (WT strain) [5] and 80% with NrtB [7].
`[O-][Cl+]O` [Chlorite, chlorite]: in assay [9], the “concentration sufficient to prevent transport of nitrate completely” value turned out to be 1 mM. For the same compound, the “substrate / transport by NrtA in oocytes” value on NrtA [1] is listed as “substrate”. For the same compound, the Ki at NrtA [2] was 0.49 ± 0.01 mM; on NrtB [3], 0.34 ± 0.02 mM; on NrtA, NrtB (WT strain) [6] it was 0.35 ± 0.02 mM. Besides, the “nature of inhibition of nitrate transport (Lineweaver–Burk)” value on NrtA [2] is listed as “competitive; also recorded: competition”; in the assay with NrtB [3], “non-competitive inhibition”. In the assay on NitA, the “substrate for nitrite transporter NitA” value is “significant substrate”. For the same compound, the MIC in [10] (1 mM nitrate as sole nitrogen source) was 200 µM (≈ 13.7 µg/mL); in assay [10] (setting [15]) it was 500 µM (≈ 34.2 µg/mL); in assay [10] (setting [17]), 500 µM (≈ 34.2 µg/mL); in [10] (setting [16]), 2000 µM (≈ 137 µg/mL); in [11] (setting [18]) it was above 500 µM; in [11] (setting [13]), 5000 µM (≈ 342 µg/mL). The MIC in assay [11] (setting [15]) is above 500 µM; in assay [4] (setting [12]) it was 100 µM (≈ 6.85 µg/mL); in assay [4] (setting [18]), 500 µM (≈ 34.2 µg/mL); in assay [4] (Aspergillus nidulans, 10 mM nitrate as sole nitrogen source), 500 µM (≈ 34.2 µg/mL); in assay [4] (setting [13]), 3000 µM (≈ 205 µg/mL); in assay [4] (setting [16]), 3000 µM (≈ 205 µg/mL). The MIC turned out to be 200 µM (≈ 13.7 µg/mL) in [8] (setting [14]), 500 µM (≈ 34.2 µg/mL) in assay [8] (setting [15]), 500 µM (≈ 34.2 µg/mL) in assay [8] (setting [17]) and 1000 µM (≈ 68.5 µg/mL) in assay [8] (setting [16]).
